Molecular target: AMPK
Assay: AMPK activation, enzyme-linked immunosorbent assay
Format: biochemical
Conditions: EC50 for AMPK activation, ELISA
Method in brief: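 Activator screen performed per well-known kit methods.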

EC50 [nM] | Compound
< 500 | N#Cc1ccc(CN2CCC(NC(=O)c3ccc(C(=O)N4CC[C@@H](Oc5ccc(F)cc5)C4)cn3)CC2)cc1 [Compound 278, (R)—N-(1-(4-cyanobenzyl)piperidin-4-yl)-5-(3-(4-fluorophenoxy)pyrrolidine-1-carbonyl)picolinamide]
< 500 | N#Cc1ccc(CN2CCC(NC(=O)c3ccc(C(=O)N4CCC(Oc5ccc(N)cc5)CC4)nc3)CC2)cc1 [Compound 364, 6-(4-(4-aminophenoxy)piperidine-1-carbonyl)-N-(1-(4-cyanobenzyl)piperidin-4-yl)nicotinamide]
< 500 | N#Cc1ccc(CN2CCC(NC(=O)c3ccc(C(=O)N4CCC(Oc5ccc(S(=O)(=O)C(F)(F)F)cc5)CC4)nc3)CC2)cc1 [Compound 450, N-(1-(4-cyanobenzyl)piperidin-4-yl)-6-(4-(4-(trifluoromethylsulfonyl)phenoxy)piperidine-1-carbonyl)nicotinamide]
< 500 | O=C(Nc1ccc(Oc2ccc(F)cc2)nc1)c1ccc(C(=O)N2CCC(C(=O)c3ccc(N4CCCC4)cc3)CC2)nc1 [Compound 382, N-(6-(4-fluorophenoxy)pyridin-3-yl)-6-(4-(4-(pyrrolidin-1-yl)benzoyl)piperidine-1-carbonyl)nicotinamide]
< 500 | CC(=O)c1ccc(Oc2ccc(NC(=O)c3ccc(C(=O)N4CCC(Oc5ccc(S(C)(=O)=O)cc5)CC4)nc3)cn2)cc1 [Compound 485, N-(6-(4-acetylphenoxy)pyridin-3-yl)-6-(4-(4-(methylsulfonyl)phenoxy)piperidine-1-carbonyl)nicotinamide]
< 500 | N#Cc1ccc(N2CCC(NC(=O)c3ccc(C(=O)N4CCN(Cc5ccc(F)cc5)CC4)nc3)CC2)cc1 [Compound 417, N-(1-(4-cyanophenyl)piperidin-4-yl)-6-(4-(4-fluorobenzyl)piperazine-1-carbonyl)nicotinamide]
< 500 | Cc1nc(Oc2ccc(C#N)cc2)ccc1NC(=O)c1ccc(C(=O)N2CCC(C(=O)c3ccc(F)cc3F)CC2)nc1 [Compound 479, N-(6-(4-cyanophenoxy)-2-methylpyridin-3-yl)-6-(4-(2,4-difluorobenzoyl)piperidine-1-carbonyl)nicotinamide]
< 500 | N#Cc1ccc(Oc2ccc(NC(=O)c3ccc(C(=O)N4CCC(C(=O)c5ccc(F)cc5F)CC4)nc3)cn2)cc1 [Compound 463, N-(6-(4-cyanophenoxy)pyridin-3-yl)-6-(4-(2,4-difluorobenzoyl)piperidine-1-carbonyl)nicotinamide]
< 500 | CS(=O)(=O)c1ccc(OC2CCN(C(=O)c3ccc(C(=O)Nc4ccc(Oc5ccc(C#N)cc5)nc4)cn3)CC2)cc1 [Compound 459, N-(6-(4-cyanophenoxy)pyridin-3-yl)-6-(4-(4-(methylsulfonyl)phenoxy)piperidine-1-carbonyl)nicotinamide]
< 500 | O=C(NC1CCN(Cc2ccc(OC(F)(F)F)cc2)CC1)c1ccc(C(=O)N2CCC(Oc3cccc(NC(=O)C4CC4)c3)CC2)nc1 [Compound 438, 6-(4-(3-(cyclopropanecarboxamido)phenoxy)piperidine-1-carbonyl)-N-(1-(4-(trifluoromethoxy)benzyl)piperidin-4-yl)nicotinamide]
< 500 | CC(=O)c1ccc(Oc2ccc(NC(=O)c3ccc(C(=O)N4CCN(Cc5ccc(F)cc5)CC4)nc3)cn2)cc1 [Compound 477, N-(6-(4-acetylphenoxy)pyridin-3-yl)-6-(4-(4-fluorobenzyl)piperazine-1-carbonyl)nicotinamide]
> 10000 | COc1ccc(C(=O)C2CCN(C(=O)c3ccc(C(=O)NC4CCN(Cc5ccc(NC(=O)CCOCCOCCOCCNC(=O)CCCC[C@@H]6SC[C@@H]7NC(=O)N[C@@H]76)cc5)CC4)nc3)CC2)cc1 [Compound 403, 5-(4-(4-methoxybenzoyl)piperidine-1-carbonyl)-N-(1-(4-(14-oxo-18-((3aS,4S,6aR)-2-oxohexahydro-1H-thieno[3,4-d]imidazol-4-yl)-4,7,10-trioxa-13-azaoctadecanamido)benzyl)piperidin-4-yl)picolinamide]
< 500 | COc1ccc(C(=O)C2CCN(C(=O)c3ccc(C(=O)Nc4ccc(Oc5ccc(F)cc5)nc4)cn3)CC2)cc1 [Compound 325, N-(6-(4-fluorophenoxy)pyridin-3-yl)-6-(4-(4-methoxybenzoyl)piperidine-1-carbonyl)nicotinamide]
500 to 1000 | COc1ccc(OC2CCN(C(=O)c3ccc(C(=O)NC4CCN(Cc5ccc(C#N)cc5)CC4)cn3)CC2)c(N)c1 [Compound 384, 6-(4-(2-amino-4-methoxyphenoxy)piperidine-1-carbonyl)-N-(1-(4-cyanobenzyl)piperidin-4-yl)nicotinamide]
< 500 | COc1ccc(C(=O)C2CCN(C(=O)c3ccc(C(=O)Nc4ccc(Oc5ccc(C#N)cc5)nc4C)cn3)CC2)cc1 [Compound 478, N-(6-(4-cyanophenoxy)-2-methylpyridin-3-yl)-6-(4-(4-methoxybenzoyl)piperidine-1-carbonyl)nicotinamide]

More lines, now with the values behind:

Compound | EC50 [nM]
N#Cc1ccc(CN2CCC(NC(=O)c3cnc(C(=O)N4CCC(Oc5ccc(C(F)(F)F)cc5)CC4)cn3)CC2)cc1 [Compound 212, N-(1-(4-cyanobenzyl)piperidin-4-yl)-5-(4-(4-(trifluoromethyl)phenoxy)piperidine-1-carbonyl)pyrazine-2-carboxamide] | < 500
CS(=O)(=O)c1ccc(C(=O)C2CCN(C(=O)c3ccc(C(=O)NC4CCN(Cc5ccc(N6CCCC6)cc5)CC4)nc3)CC2)cc1 [Compound 233, 5-(4-(4-(methylsulfonyl)benzoyl)piperidine-1-carbonyl)-N-(1-(4-(pyrrolidin-1-yl)benzyl)piperidin-4-yl)picolinamide] | < 500
N#Cc1ccc(CN2CCc3ccc(NC(=O)c4ccc(C(=O)NCc5ccc(F)cc5)cn4)cc3C2)cc1 [Compound 144, N2-(2-(4-cyanobenzyl)-1,2,3,4-tetrahydroisoquinolin-7-yl)-N5-(4-fluorobenzyl)pyridine-2,5-dicarboxamide] | 500 to 1000
N#Cc1ccc(CN2CCC(NC(=O)c3ccc(N4CCN(Cc5ccccc5)CC4)cn3)CC2)cc1 [Compound 110, 5-(4-benzylpiperazin-1-yl)-N-(1-(4-cyanobenzyl)piperidin-4-yl)picolinamide] | 1000 to 5000
CC(C)N1CCN(C(=O)c2ccc(C(=O)NC3CCN(Cc4ccc(C#N)cc4)CC3)nc2)CC1 [Compound 84, N-(1-(4-cyanobenzyl)piperidin-4-yl)-5-(4-isopropylpiperazine-1-carbonyl)picolinamide] | 1000 to 5000
CS(=O)(=O)c1ccc(CN2CCC(NC(=O)c3ccc(C(=O)N4CCC(Oc5ccc(C#N)cc5)CC4)nc3)CC2)cc1 [Compound 214, 6-(4-(4-cyanophenoxy)piperidine-1-carbonyl)-N-(1-(4-(methylsulfonyl)benzyl)piperidin-4-yl)nicotinamide] | > 10000
N#Cc1ccc(O[C@H]2CC[C@H](NC(=O)c3ccc(C(=O)N4CCC(C(=O)c5ccc(F)cc5)CC4)cn3)CC2)cc1 [Compound 168, N-((trans)-4-(4-cyanophenoxy)cyclohexyl)-5-(4-(4-fluorobenzoyl)piperidine-1-carbonyl)picolinamide] | < 500
O=C(c1ccc(C(=O)N2CCN(CCc3ccccc3)CC2)nc1)N1CCN(Cc2ccc(F)cc2)CC1 [Compound 88, (4-(4-fluorobenzyl)piperazin-1-yl)(6-(4-phenethylpiperazine-1-carbonyl)pyridin-3-yl)methanone] | 1000 to 5000
N#Cc1ccc(CN2CCC(NC(=O)c3ccc(C(=O)Nc4cccc(Cc5ccccc5)c4)cn3)CC2)cc1 [Compound 5, N^2-(1-(4-cyanobenzyl)piperidin-4-yl)-N^5-(3-benzylphenyl)pyridine-2,5-dicarboxamide] | 500 to 1000
N#Cc1ccc(CN2CCC(NC(=O)c3ccc(C(=O)N4CCC(C(=O)c5ccc(F)cc5)CC4)cn3)CC2)cc1 [Compound 136, N-(1-(4-cyanobenzyl)piperidin-4-yl)-5-(4-(4-fluorobenzoyl)piperidine-1-carbonyl)picolinamide] | < 500
CC(C)N1CCN(C(=O)c2ccc(C(=O)N3CCN(CCc4ccccc4)CC3)nc2)CC1 [Compound 91, (4-isopropylpiperazin-1-yl)(6-(4-phenethylpiperazine-1-carbonyl)pyridin-3-yl)methanone] | > 10000
CC1(C)CN(C(=O)c2ccc(C(=O)NC3CCN(Cc4ccc(C#N)cc4)CC3)nc2)CCN1Cc1ccc(F)cc1 [Compound 125, N-(1-(4-cyanobenzyl)piperidin-4-yl)-5-(4-(4-fluorobenzyl)-3,3-dimethylpiperazine-1-carbonyl)picolinamide] | < 500
CS(=O)(=O)c1ccc(OC2CCN(C(=O)c3ccc(C(=O)NC4CCN(Cc5ccc(F)cc5)CC4)nc3)CC2)cc1 [Compound 226, N-(1-(4-fluorobenzyl)piperidin-4-yl)-5-(4-(4-(methylsulfonyl)phenoxy)piperidine-1-carbonyl)picolinamide] | < 500
O=C(c1ccc(C(=O)N2CCN(CCc3ccccc3)CC2)nc1)N1CCN(c2ccccc2)CC1 [Compound 90, (4-phenethylpiperazin-1-yl)(5-(4-phenylpiperazine-1-carbonyl)pyridin-2-yl)methanone] | > 10000
N#Cc1ccc(O[C@H]2CC[C@@H](NC(=O)c3ccc(C(=O)N4CCC(Oc5ccc(F)cc5)CC4)cn3)CC2)cc1 [Compound 167, N-((cis)-4-(4-cyanophenoxy)cyclohexyl)-5-(4-(4-fluorophenoxy)piperidine-1-carbonyl)picolinamide] | < 500
N#Cc1ccc(CN2CCC(NC(=O)c3ccc(NC4CCN(c5ccc(Cl)cc5)CC4)cn3)CC2)cc1 [Compound 139, 5-(1-(4-chlorophenyl)piperidin-4-ylamino)-N-(1-(4-cyanobenzyl)piperidin-4-yl)picolinamide] | < 500
CC(C)(c1ccc(F)cc1)N1CCN(C(=O)c2ccc(C(=O)NC3CCN(Cc4ccc(C#N)cc4)CC3)nc2)CC1 [Compound 268, N-(1-(4-cyanobenzyl)piperidin-4-yl)-5-(4-(2-(4-fluorophenyl)propan-2-yl)piperazine-1-carbonyl)picolinamide] | < 500
N#Cc1ccc(CN2CCC(NC(=O)c3ccc(NC4CCN(c5ccccc5)CC4)cn3)CC2)cc1 [Compound 126, N-(1-(4-cyanobenzyl)piperidin-4-yl)-5-(1-phenylpiperidin-4-ylamino)picolinamide] | < 500
